In US20160325113A1, “Phototherapy Devices and Methods Comprising Optionally Substituted Quinquiesphenyl Compounds” (NITTO DENKO CORPORATION, priority 2012, published 2016):
Like-named read-outs stand apart in the source and are kept apart here.

Tests used:
[1] = system: actinic keratoses lesions; assay: Topical photosensitizer plus red OLED illumination of actinic keratoses lesions; conditions: 20% topical solution; illuminated with red OLED about 14-18 hours after application
Method: About 14-18 hours after application, the treated lesions are illuminated with a red light-emitting OLED device constructed as set forth in Example 2.
The treatment is repeated as needed.
The excess cream is removed with saline, and the lesions are illuminated with the red light-emitting OLED constructed as set forth in Example 2.

[2] = Intravenous verteporphin plus red OLED illumination of the retina, age-related macular degeneration; type: in vivo, person; conditions: about 6 mg/m^2 i.v.; retina illuminated with red OLED about 15 minutes after start of infusion
Method: Verteporphin is intravenously injected, over a period of about 10 minutes at a rate of about 3 mL/min, to a person suffering from age-related macular degeneration. The verteporphin (7.5 mL of 2 mg/mL reconstituted solution, available as Visudyne® from Novartis) is diluted with 5% dextrose to a volume of 30 mL using a sufficient quantity of the reconstituted verteporphin so that the total dose injected is about 6 mg/m^2 of body surface. About 15 minutes after the start of the 10 minute infusion of verteporphin, the verteporphin is activated by illuminating the retina with a red light-emitting OLED device as set forth in Example 2.

[3] = design: species or system person; conditions: in vivo, iv
[4] = Intravenous verteporphin plus red OLED illumination of the retina, pathological myopia; type: in vivo, person; conditions: about 6 mg/m^2 i.v.; retina illuminated with red OLED about 15 minutes after start of infusion
Method: Verteporphin is intravenously injected, over a period of about 10 minutes at a rate of about 3 mL/min, to a person suffering from pathological myopia. The verteporphin (7.5 mL of 2 mg/mL reconstituted solution, available as Visudyne® from Novartis) is diluted with 5% dextrose to a volume of 30 mL using a sufficient quantity of the reconstituted verteporphin so that the total dose injected is about 6 mg/m^2 of body surface. About 15 minutes after the start of the 10 minute infusion of verteporphin, the verteporphin is activated by illuminating the retina with a red light-emitting OLED device as set forth in Example 2. […] The treatment is repeated as needed.

With `Cl.NCC(=O)CCC(=O)O` [5-Aminolevulinic acid HCl] the “number or severity of the lesions after treatment” value [1] was “reduced”.

With `C=Cc1c(C)c2cc3nc(cc4[nH]c(cc5nc(cc1[nH]2)C(C)=C5CCC(=O)O)c(CCC(=O)OC)c4C)[C@@]1(C)C3=CC=C(C(=O)OC)[C@H]1C(=O)OC` [Verteporphin] the “patient's vision after treatment” value [2] was “stabilized”, the “patient's vision after treatment” value [3] was “stabilized” and the “patient's vision after treatment” value [4] was “stabilized”.
